In patent US9687479B2, “Multisubstituted aromatic compounds as serine protease inhibitors” (VERSEON CORPORATION, priority 2013, dated 2017):
Like-named read-outs stand apart in the source and are kept apart here.

Legend:
[1] = biological target: Human KLKB1 (Homo sapiens (Human), UniProt P03952); assay: KLKB1 kallikrein activity inhibition assay (chromogenic substrate S-2302); format: biochemical
In short: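 Enzyme at a final 3 nM was assayed in 0.05 M Tris pH 7.4, 0.01 M NaCl and 0.2% PEG-8000 at room temperature, with compounds as ten-point threefold dilutions.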

[2] = biological target: Recombinant human tissue kallikrein (KLK1) (Homo sapiens (Human), UniProt P06870); assay: KLK1 kallikrein activity inhibition assay (Pro-Phe-Arg-AMC substrate); format: biochemical
Description: The KLK1 kallikrein activity reported herein (e.g., Tables B and C) was obtained as follows. Recombinant human tissue kallikrein (KLK1) was obtained from R&D Systems. […] KLK1 enzyme is activated by incubating 0.5 mg/ml KLK1 combined with 0.1 μg/ml thermolysin in a buffer of 0.05 M Tres (pH 7.5), 0.15 M NaCl, and 0.01 M CaCl2 for one hour at 37° C. The thermolysin is then deactivated by the addition of equal parts 20 mM 1, 10 phenanthroline solution in water. The activated KLK1 solution is then added to CHES buffer (0.05 M CHES, 0.15 M NaCl, 0.01 M CaCl2, pH 10) for a final concentration of 5 nM along with the test article and incubated for 10 minutes. […] Substrate activation is read 10 minutes after substrate addition using a Synergy H1 multifunction plate reader (Biotek) programmed with a 360 nm excitation wavelength and a 480 nm emission wavelength. Inhibitor response was established by adding test compound as ten point, three-fold serial dilutions, as known in the art. The IC50 was calculated by plotting the percent (%) inhibition against compound concentration and fitting the data to a constrained four parameter sigmoidal curve, as known in the art.

[3] = Pharmacokinetics in mice (i.v. and p.o.); format: in vivo, male CD-1 mice; details: plasma
Description: Each compound is administered intravenously (i.v.) as a single dose via tail vein or orally (p.o.) as a single dose via gastric gavage to male CD-1 mice of nominal weights between 20 g and 26 g. Nominal doses are 1 mg/kg and 5 mg/kg for i.v. and p.o., respectively. In some examples (dose type A), both p.o. and i.v. doses are prepared by dissolving the test compound in 5% dimethyl acetamide and diluted in tetraethylene glycol for a final concentration of 0.25 mg/mL. In other examples (dose type B), i.v. doses are prepared by dissolving test compounds in 20% dimethyl acetamide, 40% polyethylene glycol 300 and 40% phosphate buffered saline, and p.o. doses are prepared by dissolving test compounds in carboxymethyl cellulose suspension (1% by weight) in water and 2.5% dimethyl acetamide.
Animals are housed in standard holding cages with food and water available ad libitum except for animals used for p.o. dosing which are fasted overnight prior to dosing. Samples are taken in triplicate via cardiac puncture at times prior to dosing and at 0.083 (i.v. only), 0.25, 0.5, 1, 2, 4, 8, and 24 hours after administration. Plasma is obtained by centrifuge and stored frozen until analyzed by LC-MS/MS using a Shimadzu VP System HPLC coupled to a Applied Biosystems MDS SCIEX API 3000 triple quadrapole MS. Assay results are calibrated using reference samples prepared in a range between 1.5 and 5000 ng/mL.
Pharmacokinetic parameters are calculated from mean concentration values using a non-compartmental analysis as described in the following and as apparent to those of ordinary skill in the art. Half-lives (t1/2) and elimination rate constants (λ) are determined by log linear regression using equal weighting on the last three finite sample time points. Concentration at time zero (C0) for the i.v. data is established by the extrapolation of log linear regression using equal weighting on the first three sample time points. Area under the curve (AUC) values are calculated using linear trapezoidal integration. Systemic clearance (CL) is calculated as the ratio of dosage and AUC. […] Percent oral bioavailability (% F) is determined from the ratio of i.v. and p.o. AUC values weighted by dosage.

[4] = biological target: Human thrombin (Homo sapiens (Human), UniProt P00734); assay: Thrombin protease activity inhibition assay (chromogenic substrate S-2238); format: biochemical; details: 3 nM thrombin, 125 μM S-2238, 10 min pre-incubation, RT
In short: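 Ten-point, three-fold serial dilutions of compound tested against 3 nM enzyme at RT in Tris buffer (0.05 M, pH 7.4) with 0.015 M NaCl and 0.01% PEG-8000.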

Human KLKB1, sequence (P03952 391-638 limits assumed): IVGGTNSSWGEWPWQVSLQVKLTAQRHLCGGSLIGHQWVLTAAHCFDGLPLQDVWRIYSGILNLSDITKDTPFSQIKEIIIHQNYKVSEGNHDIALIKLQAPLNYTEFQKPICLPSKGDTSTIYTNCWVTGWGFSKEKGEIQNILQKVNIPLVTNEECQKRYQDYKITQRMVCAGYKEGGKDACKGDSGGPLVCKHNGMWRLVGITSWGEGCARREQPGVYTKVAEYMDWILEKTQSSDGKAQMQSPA
Human KLKB1, sequence (P03952 20-390 partner limits assumed): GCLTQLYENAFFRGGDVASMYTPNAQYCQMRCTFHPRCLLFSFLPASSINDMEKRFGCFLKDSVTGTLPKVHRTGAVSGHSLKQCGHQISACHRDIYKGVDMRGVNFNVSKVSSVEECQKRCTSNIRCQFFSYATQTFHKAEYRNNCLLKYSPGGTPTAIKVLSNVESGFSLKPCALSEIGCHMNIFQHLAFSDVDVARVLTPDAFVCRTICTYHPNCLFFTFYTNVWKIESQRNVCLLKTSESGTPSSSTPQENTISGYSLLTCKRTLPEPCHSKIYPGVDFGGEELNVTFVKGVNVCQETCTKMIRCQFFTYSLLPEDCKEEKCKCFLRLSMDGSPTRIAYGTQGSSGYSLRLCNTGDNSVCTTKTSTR
Recombinant human tissue kallikrein (KLK1), sequence (P06870 25-262): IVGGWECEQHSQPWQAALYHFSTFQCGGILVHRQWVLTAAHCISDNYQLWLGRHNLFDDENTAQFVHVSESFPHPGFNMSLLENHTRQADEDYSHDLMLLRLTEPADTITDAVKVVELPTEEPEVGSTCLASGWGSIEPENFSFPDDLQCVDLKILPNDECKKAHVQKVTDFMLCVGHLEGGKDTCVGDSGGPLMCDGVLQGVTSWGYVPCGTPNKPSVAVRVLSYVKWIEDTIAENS

Compound | IC50 ([1]; Table C) [µM] | IC50 ([2]; Table C) [µM] | IC50 ([1]; Table B) [µM] | IC50 ([2]; Table B) [µM] | IC50 [4] [µM] | also measured
COc1ccccc1C(=O)n1nc(C2CCCCC2O)cc1NCc1ccc(Cl)s1 (centres unmarked) [Cmpd 282] | – | – | 1 to 10 | > 100 | – | –
COc1ccccc1C(=O)n1nc(-c2ncccn2)nc1NCc1ccccc1 [Cmpd 18] | 0.1 to 1 | 10 to 100 | – | – | – | –
CC(C)(C)C(=O)n1nc(C2CCNCC2)c(F)c1NCc1ccc(Cl)s1 [Cmpd 24] | – | – | – | – | – | bioavailability ([3]; male, CD-1, mouse, po, 5 mg/kg, read-out: % F): 70%; AUC ([3]; mouse, iv, male CD-1 mice, single i.v. dose 1 mg/kg, dose type A (5% dimethyl acetamide, tetraethylene glycol), read-out: i.v. AUC): 0.2 µg·h/mL; C0 ([3]; mouse, iv, male CD-1 mice, single i.v. dose 1 mg/kg, dose type A (5% dimethyl acetamide, tetraethylene glycol), read-out: i.v. C0): 0.2 µg/mL; clearance ([3]; mouse, iv, male CD-1 mice, single i.v. dose 1 mg/kg, dose type A (5% dimethyl acetamide, tetraethylene glycol), read-out: i.v. CL (converted)): 5 L/h/kg; Vd ([3]; mouse, iv, male CD-1 mice, single i.v. dose 1 mg/kg, dose type A (5% dimethyl acetamide, tetraethylene glycol), read-out: i.v. Vd): 8 L/kg; half-life ([3]; mouse, iv, male CD-1 mice, single i.v. dose 1 mg/kg, dose type A (5% dimethyl acetamide, tetraethylene glycol), read-out: i.v. t1/2 (converted)): 1 h; AUC ([3]; mouse, po, male CD-1 mice, single p.o. dose 5 mg/kg, dose type A (5% dimethyl acetamide, tetraethylene glycol), read-out: p.o. AUC): 0.6 µg·h/mL; half-life ([3]; mouse, po, male CD-1 mice, single p.o. dose 5 mg/kg, dose type A (5% dimethyl acetamide, tetraethylene glycol), read-out: p.o. t1/2 (converted)): 1 h
COCCn1cccc(-c2cc(NCc3ccc(Cl)s3)n(C(=O)c3ccccc3Cl)n2)c1=O [Cmpd 242, 3-1-[(2-chlorophenyl)carbonyl]-5-[(5-chlorothiophen-2-yl)methyl]amino-1H-pyrazol-3-yl-1-(2-methoxyethyl)-1,2-dihydropyridin-2-one] | – | – | 0.1 to 1 | > 100 | < 0.1 | –
COc1ccc(C(=O)n2nc(-c3cccn(Cc4cccnc4)c3=O)cc2NCc2ccc(Cl)s2)c(OC)c1 [Cmpd 126, 3-(5-[(5-chlorothiophen-2-yl)methyl]amino-1-[(2,4-dimethoxyphenyl)carbonyl]-1H-pyrazol-3-yl)-1-(pyridin-3-ylmethyl)-1,2-dihydropyridin-2-one] | – | – | 1 to 10 | > 100 | < 0.1 | –
O=C(O)Cn1cccc(-c2cc(NCc3ccc(Cl)s3)[nH]n2)c1=O [Cmpd 59, 2-[3-(5-[(5-chlorothiophen-2-yl)methyl]amino-1H-pyrazol-3-yl)-2-oxo-1,2-dihydropyridin-1-yl]acetic acid] | – | – | 1 to 10 | > 100 | 10 to 100 | –
COc1ccccc1C(=O)n1nc(-c2cccn(CC(=O)N3CCOCC3)c2=O)cc1NCc1ccc(Cl)s1 [Cmpd 145, 3-(5-[(5-chlorothiophen-2-yl)methyl]amino-1-[(2-methoxyphenyl)carbonyl]-1H-pyrazol-3-yl)-1-[2-(morpholin-4-yl)-2-oxoethyl]-1,2-dihydropyridin-2-one] | – | – | 1 to 10 | > 100 | < 0.1 | –
Nc1ccccc1C(=O)n1nc(-c2ncccc2F)cc1NCc1ccc(Cl)s1 [Cmpd 276] | – | – | 1 to 10 | 10 to 100 | – | –
COCCn1cccc(-c2cc(NCc3ccc(Cl)s3)n(C(=O)C3(C)CCOCC3)n2)c1=O [Cmpd 149, 3-(5-[(5-chlorothiophen-2-yl)methyl]amino-1-[(4-methyloxan-4-yl)carbonyl]-1H-pyrazol-3-yl)-1-(2-methoxyethyl)-1,2-dihydropyridin-2-one] | – | – | 1 to 10 | > 100 | > 100 | –
COc1ccccc1C(=O)n1nc(-c2cccn(Cc3cccnn3)c2=O)cc1NCc1ccc(Cl)s1 [Cmpd 138, 3-(5-[(5-chlorothiophen-2-yl)methyl]amino-1-[(2-methoxyphenyl)carbonyl]-1H-pyrazol-3-yl)-1-(pyridazin-3-ylmethyl)-1,2-dihydropyridin-2-one] | – | – | 0.1 to 1 | > 100 | < 0.1 | –
COc1ccccc1C(=O)n1nc(-c2ccc[nH]c2=O)cc1NCc1ccc(Cl)s1 [Cmpd 132, 3-(5-[(5-chlorothiophen-2-yl)methyl]amino-1-[(2-methoxyphenyl)carbonyl]-1H-pyrazol-3-yl)-1,2-dihydropyridin-2-one] | – | – | 1 to 10 | > 100 | < 0.1 | –
O=C(c1cccc2c1OCCO2)n1nc(-c2cccn(Cc3ccccn3)c2=O)cc1NCc1ccc(Cl)s1 [Cmpd 113, 3-(5-[(5-chlorothiophen-2-yl)methyl]amino-1-[(2,3-dihydro-1,4-benzodioxin-5-yl)carbonyl]-1H-pyrazol-3-yl)-1-(pyridin-2-ylmethyl)-1,2-dihydropyridin-2-one] | – | – | 0.1 to 1 | 10 to 100 | < 0.1 | –
Nc1ccccc1C(=O)n1nc(-c2ccco2)cc1NCc1ccc(Cl)s1 [Cmpd 277] | – | – | 1 to 10 | 10 to 100 | – | –
O=C(c1ccc(N2CCOCC2)cc1)n1nc(-c2cccn(Cc3cccnc3)c2=O)cc1NCc1ccc(Cl)s1 [Cmpd 213, 3-(5-[(5-chlorothiophen-2-yl)methyl]amino-1-[4-(morpholin-4-yl)phenyl]carbonyl-1H-pyrazol-3-yl)-1-(pyridin-3-ylmethyl)-1,2-dihydropyridin-2-one] | – | – | 0.1 to 1 | > 100 | < 0.1 | –
O=C(c1ccccc1Cl)n1nc(-c2cccn(Cc3ccncc3)c2=O)cc1NCc1ccc(Cl)s1 [Cmpd 248, 3-1-[(2-chlorophenyl)carbonyl]-5-[(5-chlorothiophen-2-yl)methyl]amino-1H-pyrazol-3-yl-1-(pyridin-4-ylmethyl)-1,2-dihydropyridin-2-one] | – | – | 0.1 to 1 | > 100 | < 0.1 | –

Second part, led by results:

IC50 ([1]; Table C) [µM] | IC50 ([2]; Table C) [µM] | IC50 ([1]; Table B) [µM] | IC50 ([2]; Table B) [µM] | IC50 [4] [µM] | Compound | also measured
1 to 10 | 1 to 10 | – | – | – | COc1ccc(CNc2nc(-c3ccccn3)nn2C(=O)c2ccccc2)cc1 [Cmpd 360] | –
0.1 to 1 | > 100 | – | – | – | O=C(c1ccsc1)n1nc(-c2ccncc2)nc1NCc1ccccc1 [Cmpd 407] | –
– | – | 1 to 10 | > 100 | – | O=C(c1ccoc1)n1nc(C2CCOCC2)c(F)c1NCc1ccc(Cl)s1 [Cmpd 294] | –
1 to 10 | 1 to 10 | – | – | – | COc1ccc(CNc2nc(-c3cccnc3)nn2C(=O)c2ccccc2)cc1 [Cmpd 361] | –
0.1 to 1 | 10 to 100 | – | – | – | COc1ccccc1C(=O)n1nc(-c2ccc(N(C)C)cc2)nc1NCc1ccc(Cl)s1 [Cmpd 393] | –
1 to 10 | 1 to 10 | – | – | – | COc1ccccc1C(=O)n1nc(-c2cccnc2)nc1SC [Cmpd 366, 3-1-[(2-methoxyphenyl)carbonyl]-5-(methylsulfanyl)-1H-1,2,4-triazol-3-ylpyridine] | –
0.1 to 1 | 10 to 100 | – | – | – | Cc1ccccc1C(=O)n1nc(-c2ccccn2)nc1NCc1ccc(Cl)s1 [Cmpd 391] | –
0.1 to 1 | 10 to 100 | – | – | – | COc1ccc(C(=O)n2nc(C3CCOCC3)nc2NCc2ccc(Cl)s2)c(OC)c1 [Cmpd 384] | –
– | – | 0.1 to 1 | > 100 | – | O=C(c1ccsc1)n1nc(-c2cccnn2)cc1NCc1ccc(Cl)s1 [Cmpd 292] | –
10 to 100 | 0.1 to 1 | – | – | – | COc1ccccc1C(=O)n1nc(-c2ccccn2)nc1NCc1nccs1 [Cmpd 332] | –
– | – | 0.1 to 1 | > 100 | – | O=C(c1ccsc1)n1nc(-c2ccccn2)cc1NCc1ccc(Cl)s1 [Cmpd 293] | –
0.1 to 1 | 10 to 100 | – | – | – | O=C(c1ccccc1)n1nc(-c2ccccn2)nc1NCc1ccccc1 [Cmpd 362] | –
1 to 10 | 10 to 100 | – | – | – | COc1ccc(CNc2nc(-c3ccccn3)nn2C(=O)CCc2ccccc2)cc1 [Cmpd 323] | –
< 0.1 | 10 to 100 | – | – | – | COc1ccccc1C(=O)n1nc(C2CCNCC2)nc1NCc1ccc(Cl)s1 [Cmpd 387] | –
